Experimental data: patent US20240124510A1, “Cyclic Glycoaminoacid Derivatives” (TFCHEM, priority 2021, published 2024)
Where “and” joins values, the source holds several entries; their conditions need not be identical. Equal entries are not always repeated.

Legend:
[1] = system: human preadipocytes; assay: Cytotoxicity (LDH release) on preadipocytes in inflammatory condition (AcMC); format: cell-based; conditions: for Cytotoxicity at the end of the culture, normalized by cell number, Values: single replicates
Method: (§1) Preadipocytes have been isolated from human female hypodermis (body mass index <30 kg/m2 and <45 years old). Preadipocytes have been cultured for 24 h in 100 μl of DMEM-10% Fetal Bovine Serum (FBS) in 96-well plates. Then cells were treated to induce their differentiation in a classical or an inflammatory environment for 13 days.
(§2) To induce the preadipocytes differentiation cells were incubated in a proadipogenic cocktail (PAC) including insulin, glucocorticoid, 3-isobutyl-1-methylxanthine (IBMX), and thiazolinedione in DMEM.
(§3) To induce a fibro-inflammatory environment, cells were treated with an activated human macrophage-conditioned medium (AcMC) prepared in RPMI medium. A treatment with Dexamethasone (DXM) at 100 nM was used as anti-inflammatory response control. At D0: preadipocytes have been treated in the following conditions: • “Undifferentiation”: DMEM+¼ RPMI medium • “Differentiation”: PAC+¼ RPMI medium • “AcMC” i.e. inflammatory condition: PAC+¼ AcMC • “AcMC+DXM”: PAC+[…] AcMC+anti-inflammatory DXM at 100 nM • “AcMc+compounds”: PAC+14 AcMC+compounds to be tested
(§4) All conditions have been performed in triplicate. The medium has been changed every 2 days for 13 days.
(§5) At D14: during the last 24 h of culture, the medium has been replaced by DMEM/F12 medium in all conditions, to collect cells' secretions.
Cytotoxicity was assessed by the measurement of the lactate dehydrogenase (LDH) released by damaged cells in the culture medium (using the kit CytoTox-One Non-Radioactive Cytotoxicity Assay, G1780, Promega). Cells were treated with 0.2% of triton at the end of the culture to determine the maximal toxicity response. The LDH measurement was realized on 24 h medium secretions after 13 days of culture.
The results were normalized by cell number, determined by nuclei staining (with DAPI: 4′,6-Diamidino-2-Phenylindole, Dihydrochloride), and were represented in percentage of the lysis positive control. Compounds presenting a level of cytotoxicity below 20% compared to control were considered as non-toxic.
Quantity of LDH measured in medium was normalized by cell number in each culture condition. Data are represented in percentage of proinflammatory control conditions (AcMC condition).

[2] = system: IL-6; assay: Extracellular secretion of IL-6 by preadipocytes in inflammatory condition (ELISA); format: cell-based, human; conditions: for IL-6 secretion, Mean / IL-6 secretion, Values: normalized by cells number (DAPI); for IL-6 secretion, Values: individual values; for IL-6 secreted, normalized by cell number, in % of AcMC condition: preadipocytes/adipocytes
Method: as §1, §2, §3, §4, §5
After 13 days, the 24 h culture media of the different conditions have been collected at the end of the treatment period. The concentrations of IL-6, procollagen I and MCP1 have been evaluated by ELISA assays using specific kits (for IL-6: DY206, DuoSet ELISA, R&D Systems; for Procollagen I: DY6220-05, DuoSet ELISA, R&D Systems; for MCP1: DY279-05 DuoSet ELISA, R&D Systems) according to the manufacture's recommendations. Values have been normalized to the cell number determined by DAPI staining.
Quantity of IL-6 secreted in medium was measured and was normalized by cell number in each culture condition. Data are represented in percentage of proinflammatory control condition (AcMC condition).

[3] = system: neonatal skin fibroblasts (CCD-27SK); assay: Preservation/protection of neonatal skin fibroblasts under starvation conditions, neutral red uptake assay; format: cell-based, human; conditions: for Variation of viability (stressed cells treated with compound 6 vs stressed cells): 17 mM; for OD 540 nm - mean value (cell viability): starvation medium + 17 mM
Method: The neonatal skin fibroblasts (Cell line: CCD-27SK. ATCC number CRL-1475) were grown with DMEM medium supplemented with Fetal Bovine Serum 10% final, antibiotics (Penicillin/Streptomycin) 1% final and Amphotericin B 0.1% final. Fibroblasts were grown in 75 cm^2 culture flask to 80% confluence in 37° C. and 10% CO2 incubator. The medium was changed every two days by 37° C. preheated fresh medium.
This medium was composed of 45% subculturing medium without Fetal Bovine Serum mixed with 55% of Phosphate Buffer Saline IX containing EDTA (final concentration of 0.45 mM). This was referred to as serum-free medium or starvation medium.
Compound 6 (MM=356.3 g/mol) was diluted in starvation medium to 17 mM final and pH was adjusted at 7.4 by addition of NaOH 1N.
Fibroblast cells were concentrated to 2.10^5 cells/ml and 100 μl of cell suspension was added in wells of a 96-well plate and incubated in 37° C. and 10% CO2 incubator for 4 hours.
After cell adhesion the medium was changed and plates were incubated (37° C.-10% CO2) to perform the assay as follows: • One plate for each sampling times: D0, D4, D7 days; • Three wells for each condition (triplicate count) added with 120 μl of culture medium (surviving control), starvation medium (serum-free control) or compound 6 solution at 17 mM.
The neutral red uptake assay was used for the determination of cell viability. This assay is based on the ability of viable cells to incorporate and bind the supravital dye neutral red in its lysosomes. Thus, only the viable cells are dyed. At D4 and D7, the plates were incubated with neutral red solution for 3.5 hours. The cells are subsequently washed, the dye is extracted in each well and the absorbance is read using a spectrophotometer.
For sampling, 1 mL of DMEM (without phenol red indicator) with neutral red (OD=0.110) was added to the cells for 3.5 hours (37° C. 10% CO2). After incubation. the medium was removed. Two washes with PBS were realized and 1 mL of extraction solution (absolute ethanol 49%, ultrapure water 49%, glacial acetic acid 2%) was added. Plates were placed 15 minutes on rotary shaker in the dark before reading OD at 540 nm.
The OD540 nm average values were compared and the variation of viability was calculated as follows:
Variation of viability at Dx=(OD540 nm of tested solution−blank) at Dx/(OD540 nm of stress control−blank) at Dx.

N[C@H]1CCCN(CC(F)(F)[C@]2(O)O[C@H](CO)[C@H](O)[C@H](O)[C@H]2O)C1=O [Compound 6] was tested, and the “Cytotoxicity at the end of the culture, normalized by cell number, Mean” value ([1]; AcMC + 1 mg/ml) was 81.7 % of AcMC condition, the “Cytotoxicity at the end of the culture, normalized by cell number, Values” ([1]; AcMC + 1 mg/ml) was 53.1 % of AcMC condition and 81.8 % of AcMC condition and 110.4 % of AcMC condition and the “Cytotoxicity at the end of the culture, normalized by cell number, Mean” value ([1]; AcMC + 2 mg/ml) was 53.3 % of AcMC condition. For the same compound, the “Cytotoxicity at the end of the culture, normalized by cell number, Values” ([1]; AcMC + 2 mg/ml) was 50.5 % of AcMC condition and 50.6 % of AcMC condition and 58.9 % of AcMC condition, the “IL-6 secretion, Mean” value ([2]; AcMC + 1 mg/ml) was 84.0 % of AcMC condition and the “IL-6 secretion, Values” ([2]; AcMC + 1 mg/ml) was 66.1 % of AcMC condition and 95.1 % of AcMC condition and 90.8 % of AcMC condition. The “IL-6 secretion, Mean” value ([2]; AcMC + 2 mg/ml) was 28.1 % of AcMC condition, the “IL-6 secretion, Values” ([2]; AcMC + 2 mg/ml) was 25.5 % of AcMC condition and 26.8 % of AcMC condition and 31.9 % of AcMC condition and the “IL-6 secreted, normalized by cell number, in % of AcMC condition” value ([2]; 1 mg/ml) was 84%. The “IL-6 secreted, normalized by cell number, in % of AcMC condition” value ([2]; 2 mg/ml) was 28.1%, the “IL-6 secreted, normalized by cell number, in % of AcMC condition” value ([2]; 2 mg/ml, listed as compound 6) was 28.1% and 28% and the “Variation of viability (stressed cells treated with compound 6 vs stressed cells)” value ([3]; D 4) was 2.3 and 2.32. For the same compound, the “OD 540 nm - mean value (cell viability)” value ([3]; D 4) was 0.274, the “Variation of viability (stressed cells treated with compound 6 vs stressed cells)” value ([3]; D 7) was 3.4 and 3.39 and the “OD 540 nm - mean value (cell viability)” value ([3]; D 7) was 0.224.
